# Test results: ChEMBL document CHEMBL5052828, “Therapeutic agents for treating and preventing autoimmune diseases and cancer and a screening method” (2020)
# Activity calls are given as the source filed them. No cut-off for these calls is given here.
# Legend:
# LNCaP [1] = assay: Antiproliferative activity against human LNCaP cells at 25 uM assessed as suppression of cell viability after 4 hrs by CCK-8 assay; format: functional
# Mus musculus [2] = assay: Immunosuppressive activity in MOG (35 to 55 residues)/pertussis toxin-induced experimental autoimmune encephalomyelitis female C57BL/6 mouse model assessed as reduction in clinical scores at 0.5 mg, ip; format: functional, organism-based
# HEK293T [3] = assay: Inhibition of Arid5a Y137 pocket X mutant in human HEK293T cells at 40 uM assessed as inhibition of stabilization of OX40 on 3'UTR measured by luciferase assay; format: cell-based
# A549 [4] = assay: Antiproliferative activity against human A549 cells after 4 hrs by CCK-8 assay; format: functional, cell-based; settings: A549, 4 h
# HEK293T [5] = assay: Inhibition of Arid5a in human HEK293T cells at 10 to 60 uM assessed as inhibition of stabilization of STAT3 on 3'UTR measured by luciferase assay; format: cell-based; settings: dose 10-60 µM
# Mus musculus [6] = assay: Protection against imiquimod-induced psoriasis model of BALB/c mouse assessed as reduction in IL-17a mRNA expression at 1 mg treated topically; format: functional, organism-based
# Macrophage [7] = assay: Antiinflammatory activity in LPS-stimulated mouse peritoneal macrophages at 40 uM assessed as decrease STAT3 mRNA expression in Th17 cells; format: functional, cell-based
# HEK293T [8] = assay: Inhibition of Arid5a F56 pocket X mutant in human HEK293T cells at 40 uM assessed as inhibition of stabilization of OX40 on 3'UTR measured by luciferase assay; format: cell-based
# HEK293T [9] = assay: Inhibition of Arid5a L84 pocket X mutant in human HEK293T cells at 40 uM assessed as inhibition of stabilization of STAT3 on 3'UTR measured by luciferase assay; format: cell-based
# HEK293T [10] = assay: Inhibition of Arid5a V34 pocket X mutant in human HEK293T cells at 40 uM assessed as inhibition of stabilization of OX40 on 3'UTR measured by luciferase assay; format: cell-based
# Mus musculus [11] = assay: Protection against imiquimod-induced psoriasis model of BALB/c mouse assessed as reduction in IL-6 mRNA expression at 1 mg treated topically; format: functional, organism-based
# Macrophage [12] = assay: Antiinflammatory activity in LPS-stimulated mouse peritoneal macrophages at 40 uM assessed as decrease in frequency of CD4 + OX40 + T cells in polarized Th17 cells measured by flow cytometry analysis; format: functional, cell-based
# HEK293T [13] = assay: Inhibition of Arid5a Y137 pocket X mutant in human HEK293T cells at 40 uM assessed as inhibition of stabilization of STAT3 on 3'UTR measured by luciferase assay; format: cell-based
# Mus musculus [14] = assay: Immunosuppressive activity in MOG (35 to 55 residues)/pertussis toxin-induced experimental autoimmune encephalomyelitis female C57BL/6 mouse model assessed as reduction in OX40 mRNA expression in CD4 + T cells at 0.5 mg, ip; format: functional, organism-based; settings: T-cell
# Macrophage [15] = assay: Antiinflammatory activity in LPS-stimulated mouse peritoneal macrophages at 40 uM assessed as effect on TNF-alpha level measured by ELISA; format: functional, cell-based
# Mus musculus [16] = assay: Antiinflammatory activity in C57BL/6 mouse model of collagen-induced arthritis assessed as reduction in frequency of CD4+ IL-17+ cells at 0.25 mg, ip; format: functional, organism-based
# Homo sapiens = organism: Homo sapiens; assay: Inhibition of human Arid5a binding to (ADE) -like stem loop in the OX40 3'UTR measured by RNA-protein binding assay; settings: dose 0.5 mg
# MDA-MB-231 [17] = assay: Antiproliferative activity against human MDA-MB-231 cells at 20 uM assessed as suppression of cell viability after 4 hrs by CCK-8 assay; format: functional
# A549 [18] = assay: Antiproliferative activity against human A549 cells at 20 uM assessed as suppression of cell viability after 4 hrs by CCK-8 assay; format: functional
# HEK293T [19] = assay: Inhibition of Arid5a in human HEK293T cells at 40 uM assessed as inhibition of stabilization of IL-6 on 3'UTR measured by luciferase assay; format: cell-based
# HEK293T [20] = assay: Inhibition of Arid5a F56 pocket X mutant in human HEK293T cells at 40 uM assessed as inhibition of stabilization of STAT3 on 3'UTR measured by luciferase assay; format: cell-based
# HEK293T [21] = assay: Inhibition of Arid5a V34 pocket X mutant in human HEK293T cells at 40 uM assessed as inhibition of stabilization of STAT3 on 3'UTR measured by luciferase assay; format: cell-based
# Macrophage [22] = assay: Antiinflammatory activity in LPS-stimulated mouse peritoneal macrophages at 40 uM assessed as decrease in IL-6 level measured by ELISA; format: functional, cell-based
# HEK293T [23] = assay: Inhibition of Arid5a F56 pocket X mutant in human HEK293T cells at 40 uM assessed as inhibition of stabilization of IL-6 on 3'UTR measured by luciferase assay; format: cell-based
# Macrophage [24] = assay: Antiinflammatory activity in LPS-stimulated mouse peritoneal macrophages at 40 uM assessed as decrease in IL-17 level measured by ELISA; format: functional, cell-based
# Mus musculus [25] = assay: Antiinflammatory activity in C57BL/6 mouse model of collagen-induced arthritis assessed as reduction in serum IL-6 level at 0.25 mg, ip; format: functional, organism-based
# Mus musculus [26] = assay: Immunosuppressive activity in MOG (35 to 55 residues)/pertussis toxin-induced experimental autoimmune encephalomyelitis female C57BL/6 mouse model assessed as reduction in serum TNF-alpha level at 0.5 mg, ip; format: functional, organism-based
# Mus musculus [27] = assay: Immunosuppressive activity in MOG (35 to 55 residues)/pertussis toxin-induced experimental autoimmune encephalomyelitis female C57BL/6 mouse model assessed as reduction in IL-17 level in encephalitogenic CD4 + T cells at 0.5 mg, ip; format: functional, organism-based; settings: T-cell
# MDA-MB-231 [28] = assay: Antiproliferative activity against human MDA-MB-231 cells after 4 hrs by CCK-8 assay; format: functional, cell-based; settings: MDA-MB-231, 4 h
# Mus musculus [29] = assay: Protection against imiquimod-induced psoriasis model of BALB/c mouse assessed as reduction in clinical score at 1 mg treated topically; format: functional, organism-based
# Mus musculus [30] = assay: Immunosuppressive activity in MOG (35 to 55 residues)/pertussis toxin-induced experimental autoimmune encephalomyelitis female C57BL/6 mouse model assessed as reduction in frequency of CD4 + OX40 + T cells at 0.5 mg, ip; format: functional, organism-based; settings: T-cell
# HEK293T [31] = assay: Inhibition of Arid5a in human HEK293T cells at 10 to 60 uM assessed as inhibition of stabilization of IL-6 on 3'UTR measured by luciferase assay; format: cell-based; settings: dose 10-60 µM
# HEK293T [32] = assay: Inhibition of Arid5a L84 pocket X mutant in human HEK293T cells at 40 uM assessed as inhibition of stabilization of IL-6 on 3'UTR measured by luciferase assay; format: cell-based
# HEK293T [33] = assay: Inhibition of Arid5a V34 pocket X mutant in human HEK293T cells at 40 uM assessed as inhibition of stabilization of IL-6 on 3'UTR measured by luciferase assay; format: cell-based
# HEK293T [34] = assay: Inhibition of Arid5a L84 pocket X mutant in human HEK293T cells at 40 uM assessed as inhibition of stabilization of OX40 on 3'UTR measured by luciferase assay; format: cell-based
# Mus musculus [35] = assay: Immunosuppressive activity in MOG (35 to 55 residues)/pertussis toxin-induced experimental autoimmune encephalomyelitis female C57BL/6 mouse model assessed as reduction in serum IL-6 level at 0.5 mg, ip; format: functional, organism-based
# HEK293T [36] = assay: Inhibition of Arid5a in human HEK293T cells at 10 to 60 uM assessed as inhibition of stabilization of OX40 on 3'UTR measured by luciferase assay; format: cell-based; settings: dose 10-60 µM
# Mus musculus [37] = assay: Antiinflammatory activity in C57BL/6 mouse model of collagen-induced arthritis assessed as reduction in clinical score at 0.25 mg, ip; format: functional, organism-based
# LNCaP [38] = assay: Antiproliferative activity against human LNCaP cells after 4 hrs by CCK-8 assay; format: functional, cell-based
# HEK293T [39] = assay: Inhibition of Arid5a Y137 pocket X mutant in human HEK293T cells at 40 uM assessed as inhibition of stabilization of IL-6 on 3'UTR measured by luciferase assay; format: cell-based
compound,measurement,setting,value
O=C(CSc1nnc(-c2ccncc2)o1)c1ccccc1,Activity,LNCaP [1],61%
same,Activity,Mus musculus [2],Active
same,inhibition,HEK293T [3],inactive
same,IC50,A549 [4],28.4 µM
same,inhibition,HEK293T [5],Active
same,Activity,Mus musculus [6],Active
same,Activity,Macrophage [7],Active
same,inhibition,HEK293T [8],inactive
same,inhibition,HEK293T [9],inactive
same,inhibition,HEK293T [10],inactive
same,Activity,Mus musculus [11],Active
same,Activity,Macrophage [12],Active
same,inhibition,HEK293T [13],inactive
same,Activity,Mus musculus [14],Active
same,Activity,Macrophage [15],inactive
same,Activity,Mus musculus [16],Active
same,inhibition,Homo sapiens,Active
same,Activity,MDA-MB-231 [17],64%
same,Activity,A549 [18],59%
same,inhibition,HEK293T [19],Active
same,inhibition,HEK293T [20],inactive
same,inhibition,HEK293T [21],inactive
same,Activity,Macrophage [22],Active
same,inhibition,HEK293T [23],inactive
same,Activity,Macrophage [24],Active
same,Activity,Mus musculus [25],Active
same,Activity,Mus musculus [26],Active
same,Activity,Mus musculus [27],Active
same,IC50,MDA-MB-231 [28],27.8 µM
same,Activity,Mus musculus [29],Active
same,Activity,Mus musculus [30],Active
same,inhibition,HEK293T [31],Active
same,inhibition,HEK293T [32],inactive
same,inhibition,HEK293T [33],inactive
same,inhibition,HEK293T [34],inactive
same,Activity,Mus musculus [35],Active
same,inhibition,HEK293T [36],Active
same,Activity,Mus musculus [37],Active
same,IC50,LNCaP [38],34.6 µM
same,inhibition,HEK293T [39],inactive
Cc1nnc(SCC(=O)c2ccccc2)o1,Activity,LNCaP [1],61%
same,IC50,A549 [4],28.4 µM
same,Activity,Mus musculus [6],Active
same,Activity,Mus musculus [11],Active
same,Activity,Mus musculus [16],Active
same,Activity,MDA-MB-231 [17],64%
same,Activity,A549 [18],59%
same,inhibition,HEK293T [19],Active
same,Activity,Mus musculus [25],Active
same,IC50,MDA-MB-231 [28],27.8 µM
same,Activity,Mus musculus [29],Active
same,Activity,Mus musculus [37],Active
same,IC50,LNCaP [38],34.6 µM
Cc1nnc(NCC(=O)c2ccccc2)s1,Activity,LNCaP [1],61%
same,IC50,A549 [4],28.4 µM
same,Activity,Mus musculus [6],Active
same,Activity,Mus musculus [11],Active
same,Activity,Mus musculus [16],Active
same,Activity,MDA-MB-231 [17],64%
same,Activity,A549 [18],59%
same,inhibition,HEK293T [19],Active
same,Activity,Mus musculus [25],Active
same,IC50,MDA-MB-231 [28],27.8 µM
same,Activity,Mus musculus [29],Active
same,Activity,Mus musculus [37],Active
same,IC50,LNCaP [38],34.6 µM
CC(=O)CSc1nnc(-c2cccnc2)o1,Activity,LNCaP [1],61%
same,IC50,A549 [4],28.4 µM
same,Activity,Mus musculus [6],Active
same,Activity,Mus musculus [11],Active
same,Activity,Mus musculus [16],Active
same,Activity,MDA-MB-231 [17],64%
same,Activity,A549 [18],59%
same,inhibition,HEK293T [19],Active
same,Activity,Mus musculus [25],Active
same,IC50,MDA-MB-231 [28],27.8 µM
same,Activity,Mus musculus [29],Active
same,Activity,Mus musculus [37],Active
same,IC50,LNCaP [38],34.6 µM
